Measured values taken from patent US20150072315A1, “Formulations and kit for biometric deposition of apatite on teeth” (Heraeus Kulzer GmbH, priority 2013, published 2015).

Key:
[1] = staining test for dentine-sealing effect (rhodamine, colorimetry)
Description: The components were produced as described in example 1.
After the application of the gels, a staining test was used to check if a dentine-sealing effect occurred. Acids that were insoluble at the requisite conditions were not tested further.
Principle of the staining test: The samples are measured by colorimetry on the coated and uncoated side after staining with 1% rhodamine solution using a Spectraflash 600 Plus two-channel spectrometer with the CIE L*a*b* system and aperture 3 mm X4SAV. The difference in colour is reported as the delta value (colour difference).
Tris buffer (pH value: 7.2 to 9.0) was used in the Ca gel. A sodium acetate buffer (pH value: 3.7 to 5.7) was used in the P gel.

[2] = solubility and appearance of pre-treatment, calcium and phosphate solutions made with the acid
Description: For component A containing phosphate ions, a solution containing 29.5 g NaH2PO4, 33 g Olaflur, and 27.0 g lactic acid was produced. […] A total of 24 ml of the solution and 6 g glycerol and 10 g of 300 Bloom pork rind gelatine were processed while heating to form a viscous solution. A small amount of liquid was placed in a template with a wall thickness of 500 μm and exposed to 2 bar of pressure. After solidification, the strips were removed from the template and cut into 1×1 cm squares.
For component B containing calcium ions, a calcium chloride solution containing 29.4 g calcium chloride dihydrate and 6.3 g lactic acid was prepared. […] The solution was topped up to 200 ml with de-ionized water. In order to produce the gel, 21.6 g of the solution and 8.24 g glycerol and 8 g calcium sulfate and 13.6 g 300 Bloom gelatine were mixed and heated. The liquid gel was then spread with a squeegee to a thickness of 1 mm or pressed in a template with a wall thickness of 1 mm. After solidification, the strips were cut into 1×1 cm squares. For the pre-treatment solution (mouthwash), a 0.1 mol Tris buffer was added to a 1 molar calcium chloride solution and the pH was adjusted to 9.0.

[3] = colour difference coated vs uncoated side after staining with 1% rhodamine solution, CIE L*a*b*
[4] = as E1, P gel combined with acetic acid-Ca gel

| SMILES | deposition after application of the kit [1] | Functional test (delta E) [1, 3] | also measured |
| --- | --- | --- | --- |
| CC(O)C(=O)O (stereo not drawn) [Lactic acid] | show deposition | 49.83 ± 4.02 |  |
| O=C(O)c1ccccc1O [Salicylic acid] |  |  | solubility of the acid (merged cell spanning the solution columns) [2]: insoluble |
| O=C(O)CC(O)C(=O)O (stereo not drawn) [Malic acid] | show deposition | 42.41 ± 5.39 | solubility of the calcium salt of the acid [2]: sufficiently soluble; Pre-treatment solution: solubility/appearance ([2]; pH 8.5): precipitation; Pre-treatment solution: solubility/appearance ([2]; pH 9.02): pH 9.02 clear; Pre-treatment solution: solubility/appearance ([2]; pH 9.53): pH 9.53 clear |
| O=C(O)CO [Glycolic acid] | show deposition |  | Functional test (delta E) [1, 4]: 35.32 ± 4.19 |
| O=C(O)C(CO)c1ccccc1 (stereo not drawn) [Tropic acid] |  |  | solubility of the acid (merged cell spanning the solution columns) [2]: insoluble |
| N[C@@H](CC(=O)O)C(=O)O [Aspartic acid] | show deposition | 45.96 ± 2.63 |  |
| O=C(O)c1ccc(C(=O)O)c(C(=O)O)c1 [Trimellitic acid] |  |  | Functional test (delta E) [1, 4]: 42.05 ± 11.24; Ca gel solution: solubility/appearance [2]: precipitation |
| O=C1O[C@H]([C@@H](O)CO)C(O)=C1O [Ascorbic acid] | show deposition | 56.64 ± 9.85 |  |
